Measurements from patent publication US20240287135A1, “ANTIMICROBIAL PEPTIDE OR PEPTIDE DERIVATIVE, SUBSTITUTE, AND COMPOSITION THEREOF, AND PREPARATION METHOD AND APPLICATION OF COMPOSITION” (QC BIO-TECHNOLOGY (SHENZHEN) CO., LTD., priority 2021, published 2024).
Ends that are not written are not given here.

Experiments:
RNA viruses = assay: Killing of the AMP for RNA viruses (RT-PCR after infection of 293T); assay type: cell-based; conditions: supernatant mixed with equal amount of 200 μg/mL AMP for 15 min; 293T infected 12 h; control 1.7×10^7
Experimental: The plasmids pNL4.3Δ, pVSV-G, p-enhancer, and lipo2000 each were used to transfect 293T, then the cells were cultivated at 37° ° C. for two days, a culture supernatant was taken and centrifuged to remove organelle impurities, and 500 μL of a cell supernatant was mixed with an equal amount of 200 μg/mL SEQ ID NO: 8 to allow a reaction for 15 min. In a control group, PBS was used instead of SEQ ID NO: 8. The filter centrifugation (Millipore Amicon Ultra-15) was used to remove the AMP, thereby eliminating a killing effect of the AMP itself on cells. A sample to be tested was used to infect the 293Tcell line, and then the cell line was cultivated at 37° C. for 12 h. The 293T cell line was recovered, and the RT-PCR method was used to determine the infection difference between live viruses for the cells. The control group and the experimental group had the same experimental environment, but the amino acid sequence of SEQ ID NO: 8 of the present application was added in the experimental group.

K562 cells = assay: Killing of the AMP for tumor cells (FCM PI kit); assay type: cell-based; conditions: 10 ng, 20 ng and 40 ng of AMP
Experimental: K562 cells were cultivated, a same amount of K562 cells was taken and mixed with 10 ng, 20 ng, and 40 ng of the AMP of SEQ ID NO: 8 to allow a reaction, and apoptotic cells were determined by a flow cytometry (FCM) PI kit.

E. coli = E. coli inhibition test (colony count on agarose plate); assay type: cell-based, Escherichia coli; conditions: for number of E. coli clones on plate: AMP 200 μg/mL mixed 1:1 with bacterial solution, 15 min room temperature, cultivated 37 °C 12 h, control 251 clones
Experimental: The 39 AMPs synthesized in Examples 1 to 39 each were subjected to an E. coli inhibition test. 30 μL of an E. coli bacterial solution was taken and mixed with 30 μL of each of the AMPs (concentration: 200 μg/mL), and 30 μL of a PBS isotonic solution was adopted to prepare a control; a reaction was allowed at room temperature for 15 min, and a resulting bacterial solution was evenly coated on an agarose plate and cultivated at 37 °C for 12 h; and the number of E. coli bacteria on each plate was counted and recorded.
In order to make the experimental results clearer, 6 experimental samples were taken for control analysis.

oral bacteria = assay: Inhibition on oral bacteria (mouthwash from the elderly, sheep blood agar); assay type: cell-based; conditions: 30 min, anaerobic 37 °C 4 d
Experimental: Mouthwash was taken from the elderly and divided into 4 parts of equal amounts, and the 4 parts each were mixed with a solution of 2 mg/mL SEQ ID NO: 8 at different amounts for 30 min and then evenly coated on plates with sheep blood agar, where A: PBS (control), B: 2 μL, C: 10 μL, and D: 20 μL; and resulting mixtures each were anaerobically cultivated at 37 °C for 4 d, and the number of colonies on each plate was observed.

[1] = test system: Jurkat cell line (leukemia lymphocytes); assay: Killing of the AMP for leukemia lymphocytes; assay type: cell-based; conditions: 20 μL of 1 μg/mL AMP, 10^5 cells, 10 min
Experimental: Jurkat cell line (leukemia lymphocytes) was taken. 20 μL of a solution of 1 μg/mL AMP of SEQ ID NO: 10 was mixed with 10^5 cells to allow a reaction for 10 min, and a resulting mixture was centrifuged at 1,000 rpm for 3 min.

Human RBCs = assay type: cell-based; conditions: 20 μL of 1 μg/mL AMP, 2% RBCs, 10 min
Experimental: Human RBCs were taken. 20 μL of a solution of 1 μg/mL AMP of SEQ ID NO: 27 was mixed with 2% RBCs to allow a reaction for 10 min, and a resulting mixture was centrifuged at 1,000 rpm for 3 min.

[2] = test system: HypG2 cell line (liver cancer cells); assay: Killing of the AMP for liver cancer cells; assay type: cell-based; conditions: 20 μL of 1 μg/mL AMP, 10^5 cells, 10 min
Experimental: HypG2 cell line (liver cancer cells) was taken. 20 μL of a solution of 1 μg/mL AMP of SEQ ID NO: 15 was mixed with 10^5 cells to allow a reaction for 10 min, and a resulting mixture was centrifuged at 1,000 rpm for 3 min.

[3] = test system: K562 cell line (leukemia cells); assay: Killing of the AMP for leukemia cells; assay type: cell-based; conditions: 20 μL of 1 μg/mL AMP, 10^5 cells, 10 min
Experimental: K562 cell line (leukemia cells) was taken. 20 μL of a solution of 1 μg/mL AMP of SEQ ID NO: 17 was mixed with 10^5 cells to allow a reaction for 10 min, and a resulting mixture was centrifuged at 1,000 rpm for 3 min.

HAMGNMLKIMASAVLVRH [SEQ ID NO: 8, HAMGNMLKIMASAVLVRH]
active viral copy (RNA viruses): 5×10^5 | cell death (apoptotic cells, FCM PI) (K562 cells): cell death was proportional to the content of the AMP | number of E. coli clones on plate (E. coli): 1 E. coli clones | inhibitory effect on E. coli (E. coli; AMP 200 μg/mL, 15 min, plate count (FIG. 1)): most significant inhibitory effect | growth of oral bacteria on plate (oral bacteria; B: 2 μL of 2 mg/mL solution): a small number of bacteria grew | growth of oral bacteria on plate (oral bacteria; C: 10 μL of 2 mg/mL solution): no oral bacteria grew | growth of oral bacteria on plate (oral bacteria; D: 20 μL of 2 mg/mL solution): no oral bacteria grew

HAMPNMLRIMASAVLVKR (antimicrobial peptide, fully synthetic) [SEQ ID NO: 7]
number of E. coli clones on plate (E. coli): 216 E. coli clones

HKAVGNMLKIASAVLVHK (antimicrobial peptide, fully synthetic) [SEQ ID NO: 6]
number of E. coli clones on plate (E. coli): 226 E. coli clones

HKAVPNMLHIASAVLVRH (antimicrobial peptide, fully synthetic) [SEQ ID NO: 5]
number of E. coli clones on plate (E. coli): 236 E. coli clones

HKRAMPSIVKMIATLVLARKH (antimicrobial peptide, fully synthetic) [SEQ ID NO: 10]
effect on leukemia lymphocytes (image) [1]: leukemia lymphocytes clump, and some are broken

KAVPNMLKIMASLVLARH [SEQ ID NO: 27, KAVPNMLKIMASLVLARH]
clumping of RBCs (Human RBCs): human RBCs clump | hemolysis (Human RBCs): no obvious hemolysis

RAMPNMLRIMASLVLARKH [SEQ ID NO: 15]
effect on liver cancer cells (image) [2]: Liver cancer cells clump, and are broken and deformed

RHAMGQMLRIMASLVLARK [SEQ ID NO: 17]
effect on leukemia cells (image) [3]: leukemia cells clump
